Results on one substance are retold here after patent US20160355782A1, “METHOD FOR ENHANCING DIFFERENTIATION OF DOPAMINERGIC NEURONS” (Buddhist Tzu Chi Medical Foundation, priority 2015, published 2016).

The test system of one test is VM precursor cultures. Put plainly: Real-time RT-PCR analysis of VM precursor cultures. The class given is cell-based, rat. The method, then:
Briefly, ventral mesencephalic tissues were dissected from E14.5 Sprague-Dawley (SD) rats, and then dissociated enzymatically (0.1% trypsin) and mechanically. Cells were seeded into 24-well (1×10^5/cm^2) culture plates pre-coated with 20 μg/mL poly-D-lysine (Sigma-Aldrich), and were maintained in 0.5 mL/well of minimum essential medium (MEM) supplemented with 10% fetal bovine serum (FBS), 10% horse serum (HS), 1 g/L glucose, 2 mM L-glutamine, 1 mM sodium pyruvate, 100 μM nonessential amino acids, 100 U/mL penicillin, and 100 μg/mL streptomycin (all purchased from Invitrogen). Cultures were maintained at 37° C. in a humidified atmosphere of 5% CO2 and 95% air. For DA neuron differentiation, VM precursor cultures, four hours after seeding, were switched to Dulbecco's Modified Eagle's Medium (DMEM)/Ham's F12 (1:1) containing N2 supplement (Invitrogen, Carlsbad, Calif.), penicillin and streptomycin. Immediately following the switch to DMEM/F12 medium, VM precursor cells were treated with various concentration of rat UCN (from Sigma-Aldrich, St. Louis, Mo.) for the indicated periods. For neutralization of endogenous UCN bioactivity, anti-UCN antibody (15 μg/mL) (Santa Cruz Biotechnology, Santa Cruz, Calif.) was added to the VM precursor cultures.
Total RNA was extracted from VM tissues or cultured VM precursors with TRIzol® reagent (Invitrogen). One-step real-time RT-PCR analysis was performed to determine the expression of genes (Power SYBR® Green RNA-to-CT™ 1-step kit, Applied Biosystems, Foster City, Calif.). Threshold cycle (CO value for each test gene was normalized to the Ct value for the β-actin control from the same RNA preparations. The ratio of transcription of each gene was calculated as 2^−(ΔCt), where ΔCt is the difference Cr (test gene)−Ct (β-actin). The primers used herein are listed in Table 1.

Test [1] concerns Nurr1-transduced cortical NPCs. Put plainly: DA uptake assay in Nurr1-transduced cortical NPCs. Format: cell-based, rat. The note with it: 0.5 μM UCN, 4 days. The method, then: For lenti-viral transduction, E13 cortical NPCs were incubated with lenti-viruses (25 multiplicity of infection) expressing Nurr1 or GFP containing poly-brene (hexadimethrine bromide, 1 μg/mL, Sigma-Aldrich) for 24 hours. After 1 day of further cell expansion in the presence of the mitogens, cells were induced to differentiate.
For DA uptake assay, cells were washed twice with warm Krebs-Ringer buffer (16 mM sodium phosphate, 119 mM NaCl, 4.7 mM KCl, 1.8 mM CaCl2, 1.2 mM MgSO4, 1.3 mM EDTA and 5.6 mM glucose, pH 7.4), and then incubated with 1 μM [^3H]-dopamine(DA)(60 Ci/mmol, PerkinElmer) in Krebs-Ringer buffer at 37° C. for 20 min. After washing with ice-cold Krebs-Ringer buffer, cells were collected in 1 N NaOH and radioactivity was counted with a liquid scintillation counter. Non-specific uptake was determined in parallel wells that received both the tritiated tracer and 10 μM mazindol. The specific [^3H] DA were calculated by subtracting the amount of radioactivity obtained in the presence of mazindol from that obtained in the absence of mazindol.

A further test relates to rat TH promoter. Put plainly: ChIP at the TH promoter with chromatin from E15.5 VM tissue of treated embryos. The class given is in vivo. The note with it: 10 μg/kg UCN i.p. every 24 h for 3 days. How it is done:
VM precursor cultures were treated with 1 μM UCN for about 1 to 2 days. VM cells for ChIP from rat embryos, the pregnant rats on day 12.5 of gestation were intra-peritoneally injected with saline as control or 10 μg/kg UCN as treatment every 24 h for 3 days before sacrifice. The ventral mesencephalon from E15.5 embryos was dissected. Cells were cross-linked with 1% formaldehyde, and stored at −80° C. before use.
Chromatin immuno-precipitation (ChIP) assays were performed using SimpleChIP® Enzymatic Chromatin IP kit (Cell Signaling Technology, Beverly, Mass.) by the instruction of the kit. Briefly, cross-linked chromatin in the cells was enzymatic digested to generate fragments with a length of approximately 150-900 bp (1 to 5 nucleosomes). The chromatin was subjected to immuno-precipitation using the following antibodies: anti-Nurr1 (Santa Cruz), anti-acetyl histone H3 (Ac-H3), anti-HDAC1, anti-CoREST (all from Upstate Biotechnology), anti-MeCP2 (Chemicon,), anti-Foxa2 (Cell signaling Technology), anti-Pitx3, and IgG (both from Abcam). Immuno-precipitated DNA fragments were collected by protein G magnetic beads. DNA/protein complexes were eluted from the beads and reverse cross-linked at 65° C. for 2 h in the presence of proteinase K. Purified DNA were subjected to real-time PCR using primers specific to rat TH promoter loci (referring to Table 2). […]

Urocortin [UCN]: in the test with VM precursor cultures (1 μM UCN, 4 days), the “L-aromatic amino acid decarboxylase (AADC) mRNA” value is given as “trends were found for increased” and the “dopamine transporter (DAT) mRNA” value was “trends were found for increased”. For the same substance, in the test on VM precursor cultures (UCN), the “Foxa2 mRNA expression” value is listed as “upregulated”, the “Nurr1 mRNA expression” value is “upregulated” and the “Pitx3 mRNA expression” value is given as “upregulated”. In the test with VM precursor cultures (UCN vs control medium), the “TH mRNA expression” value is “significantly elevated”, the “mRNA expression specific for GABAergic neurons (GAD67)” value is given as “no effect”, the “mRNA expression specific for glutamatergic neurons (VGULT1)” value is recorded as “no effect” and the “mRNA expression specific for serotonergic neurons (SERT)” value was “no effect”. The “DA neuronal function as assessed by DA uptake” value in test [1] was “increased DA neuronal function”. For the same substance, in the test on rat TH promoter, the “Nurr1 binding to the TH promoter regions (NB2, NB3 and repeated CpGs)” value was “more abundant”; the “histone H3 acetylation in TH promoter regions” value is listed as “significantly increased”.
